Our source for the IC50 values is patent US4722927A, “Pyrimidine amides of oleic or linoleic acid, composition containing them and their use as inhibitors of acyl-CoA cholesterol acyltransferase” (Warner-Lambert Company, priority 1986, dated 1988).

This test has as its target T1, acyl-CoA:cholesterol acyltransferase (ACAT) (Oryctolagus cuniculus, UniProt G1SFD9).
T1 construct: a tissue preparation containing rabbit intestinal microsomes; from tissue; host or cells: rabbit intestinal microsomes
T1 sequence (G1SFD9 1-524): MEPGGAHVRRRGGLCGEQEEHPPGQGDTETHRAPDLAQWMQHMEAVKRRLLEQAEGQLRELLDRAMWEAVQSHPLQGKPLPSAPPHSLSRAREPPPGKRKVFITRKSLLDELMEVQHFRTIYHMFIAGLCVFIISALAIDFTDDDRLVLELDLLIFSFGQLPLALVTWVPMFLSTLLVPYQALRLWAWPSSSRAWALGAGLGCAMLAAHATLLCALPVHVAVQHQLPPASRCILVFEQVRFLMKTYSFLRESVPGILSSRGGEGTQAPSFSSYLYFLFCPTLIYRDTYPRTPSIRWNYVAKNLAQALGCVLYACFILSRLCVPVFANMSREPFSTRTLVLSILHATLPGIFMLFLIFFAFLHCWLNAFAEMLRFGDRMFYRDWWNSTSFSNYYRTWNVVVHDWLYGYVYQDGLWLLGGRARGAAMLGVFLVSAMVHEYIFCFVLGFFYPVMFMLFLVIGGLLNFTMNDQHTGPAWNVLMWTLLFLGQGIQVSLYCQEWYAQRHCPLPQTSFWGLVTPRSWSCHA
Description: In vitro inhibition of ACAT: radio-labeled cholesterol oleate formed from radio-labeled oleic acid in rabbit intestinal microsomes. In kind it is biochemical. The procedure: The ability of representative compounds of the present invention to inhibit ACAT was measured using an in vitro test more fully described in Field, F. J. and Salone, R. G., Biochemica et Biophysica 712: 557-570 (1982). The test assesses the ability of a test compound to inhibit the acylation of cholesterol by oleic acid by measuring the amount of radio-labeled cholesterol oleate formed from radio-labeled oleic acid in a tissue preparation containing rabbit intestinal microsomes.
The data appear in Table 1 where they are expressed as IC50 values; i.e. the concentration of test compound required to inhibit 50% […] of the enzyme.

As usually defined, the IC50 is the concentration at which inhibition is half-maximal. Take `CCCCCCCC/C=C\CCCCCCCC(=O)Nc1c(OCC)ncnc1OCC` [(Z)-N-(4,6-diethoxy-5-pyrimidinyl)-9-octadecenamide]: the IC50 came to 530 nM.

On to `CCCCCCCC/C=C\CCCCCCCC(=O)Nc1c(OC)ncnc1OC` [(Z)-N-(4,6-dimethoxy-5-pyrimidinyl)-9-octadecenamide], for which the IC50 is 200 nM.
